In PMC8198649, “Development of Halogenated Pyrazolines as Selective Monoamine Oxidase-B Inhibitors: Deciphering via Molecular Dynamics Approach” (Molecules, 2021):

What was measured:
[1] = design: method as in PMID 12667689; details: PAMPA-BBB; cited from earlier work
MAO-B [2] = molecular target: T1, MAO-B (Homo sapiens, UniProt P27338); assay: MAO-B inhibition assay (benzylamine substrate) and kinetics; type: biochemical; details: for remaining activity at 10 µM: 10 µM compound, read-out: Residual Activity at 10 µM (%) MAO-B; for IC50: reference compounds after preincubation for 30 min with enzymes; for Ki: Lineweaver–Burk and secondary plots; for Type of MAO-B inhibition: Lineweaver–Burk plots
T1 construct: purchased Sigma-Aldrich (St. Louis, MO, USA)
T1 sequence (P27338 1-520): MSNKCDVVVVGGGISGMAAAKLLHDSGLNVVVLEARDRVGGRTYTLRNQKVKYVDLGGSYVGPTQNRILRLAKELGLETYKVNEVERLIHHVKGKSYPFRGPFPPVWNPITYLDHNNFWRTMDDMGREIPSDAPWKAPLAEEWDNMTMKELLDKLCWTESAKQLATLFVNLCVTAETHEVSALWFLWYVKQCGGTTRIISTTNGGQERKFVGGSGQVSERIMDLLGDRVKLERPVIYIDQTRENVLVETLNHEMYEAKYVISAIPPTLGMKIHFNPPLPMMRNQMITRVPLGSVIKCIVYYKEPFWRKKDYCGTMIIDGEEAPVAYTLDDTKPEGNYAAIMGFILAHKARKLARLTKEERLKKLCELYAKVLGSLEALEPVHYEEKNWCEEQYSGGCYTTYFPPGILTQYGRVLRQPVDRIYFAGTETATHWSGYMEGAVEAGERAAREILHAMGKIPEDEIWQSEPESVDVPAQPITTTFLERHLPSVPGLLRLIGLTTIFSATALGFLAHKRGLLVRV
Description: (§1) The enzymes and chemicals were purchased from Sigma-Aldrich (St. Louis, MO, USA).

AChE = AChE (Electrophorus electricus, UniProt O42275); assay: AChE inhibition; type: biochemical; details: 10 µM compound; read-out: Residual Activity at 10 µM (%) AChE
AChE, sequence (O42275 24-633): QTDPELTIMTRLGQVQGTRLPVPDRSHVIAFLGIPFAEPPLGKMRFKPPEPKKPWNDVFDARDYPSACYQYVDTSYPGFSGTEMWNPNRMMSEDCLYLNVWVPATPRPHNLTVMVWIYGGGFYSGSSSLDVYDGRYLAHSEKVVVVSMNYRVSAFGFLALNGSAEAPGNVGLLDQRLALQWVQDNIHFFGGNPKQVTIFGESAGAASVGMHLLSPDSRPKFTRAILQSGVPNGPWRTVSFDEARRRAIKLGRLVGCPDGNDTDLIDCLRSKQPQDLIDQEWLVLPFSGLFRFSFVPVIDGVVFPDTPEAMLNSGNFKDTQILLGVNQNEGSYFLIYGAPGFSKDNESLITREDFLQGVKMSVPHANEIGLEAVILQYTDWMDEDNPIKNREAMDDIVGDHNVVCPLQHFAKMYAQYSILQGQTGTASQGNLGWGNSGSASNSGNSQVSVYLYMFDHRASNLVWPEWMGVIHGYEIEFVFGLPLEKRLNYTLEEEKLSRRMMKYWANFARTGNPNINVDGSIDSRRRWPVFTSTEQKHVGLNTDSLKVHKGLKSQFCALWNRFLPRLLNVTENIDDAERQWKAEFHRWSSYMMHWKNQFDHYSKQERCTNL

[3] = Parallel artificial membrane permeability assay (PAMPA), BBB; details: for Papp: PAMPA
Description: The CNS bioavailability of the molecules was confirmed by a parallel artificial membrane permeability assay (PAMPA) [40].

recombinant human MAO-A = molecular target: T2, recombinant human MAO-A (Homo sapiens, UniProt P21397); assay: MAO-A inhibition assay (kynuramine substrate) and kinetics; type: biochemical; details: for remaining activity at 10 µM: 10 µM compound, read-out: Residual Activity at 10 µM (%) MAO-A; for IC50: reference compounds after preincubation for 30 min with enzymes; for Ki: Lineweaver–Burk and secondary plots; for Type of MAO-A inhibition: Lineweaver–Burk plots
T2 construct: purchased Sigma-Aldrich (St. Louis, MO, USA)
T2 sequence (P21397 1-527): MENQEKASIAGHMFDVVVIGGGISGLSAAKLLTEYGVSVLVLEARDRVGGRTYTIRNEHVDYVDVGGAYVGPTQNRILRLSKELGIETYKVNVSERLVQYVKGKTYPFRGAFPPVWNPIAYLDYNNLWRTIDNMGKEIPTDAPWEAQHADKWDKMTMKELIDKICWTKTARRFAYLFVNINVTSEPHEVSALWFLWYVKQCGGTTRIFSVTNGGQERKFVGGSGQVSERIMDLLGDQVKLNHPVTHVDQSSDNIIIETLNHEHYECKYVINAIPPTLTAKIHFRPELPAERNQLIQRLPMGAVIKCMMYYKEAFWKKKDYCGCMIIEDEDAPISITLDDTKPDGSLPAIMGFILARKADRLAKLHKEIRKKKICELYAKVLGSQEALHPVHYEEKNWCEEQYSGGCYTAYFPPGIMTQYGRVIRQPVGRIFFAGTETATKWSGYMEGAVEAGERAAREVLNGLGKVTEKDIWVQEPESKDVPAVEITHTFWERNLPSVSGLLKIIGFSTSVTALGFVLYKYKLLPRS
Description: as §1

MAO-B [4] = molecular target: T1, MAO-B; assay: Reversibility of MAO-B inhibition by dialysis; type: biochemical
Procedure: Reversibilities of EH7 were analyzed using a dialysis method after preincubating with MAO-B for 30 min, as previously described. […] The relative activities for undialyzed (AU) and dialyzed (AD) samples were compared to determine the reversibility patterns.

Prediction (CNS permeability) ([3]; PAMPA-BBB) | Structure (SMILES) | Bibliography Pe [1] [cm/s] | SI (selectivity index) (MAO-B [2]) | remaining activity at 10 µM (MAO-B [2]) [%] | IC50 (MAO-B [2]) [µM] | remaining activity at 10 µM (AChE) [%] | Papp [3] [×10⁻⁶ cm/s] | remaining activity at 10 µM (recombinant human MAO-A) [%] | IC50 (recombinant human MAO-A) [µM] | Ki (MAO-B [2]) [nM] | Type of MAO-B inhibition (MAO-B [2]) | Ki (recombinant human MAO-A) [µM] | Type of MAO-A inhibition (recombinant human MAO-A) | Relative activity of undialyzed sample (AU) (MAO-B [4]; EH7 0.15 µM, lazabemide 0.20 µM, pargyline 0.30 µM, 30 min preincubation) [%] | Relative activity of dialyzed sample (AD) (MAO-B [4]; EH7 0.15 µM, lazabemide 0.20 µM, pargyline 0.30 µM, 30 min preincubation, dialysis) [%] | Reversibility of MAO-B inhibition (MAO-B [4]; dialysis) | Experimental Pe ([3]; PAMPA-BBB)
 | NCCc1ccc(O)c(O)c1 [Dopamine] | 2e-07 |  |  |  |  |  |  |  |  |  |  |  |  |  |  | 
 | CCOc1ccc(C2=NNC(c3ccccc3)C2)cc1 (stereo not shown) [EH1, 3-(4-ethoxyphenyl)-5-phenyl-4,5-dihydro-1H-pyrazole] |  | >7.43 | 33.7 ± 0.96 | 5.38 ± 0.16 | 81 ± 6.21 | 10.3 ± 0.33 | 99.1 ± 0.27 | > 40 |  |  |  |  |  |  |  | 
 | CCOc1ccc(C2=NNC(c3ccc(Cl)cc3)C2)cc1 (stereo not shown) [EH6, 5-(4-chlorophenyl)-3-(4-ethoxyphenyl)-4,5-dihydro-1H-pyrazole] |  |  | 19.4 ± 1.01 | 0.4 ± 0.051 | 63.5 ± 4.99 | 14.3 ± 0.8 | 68.1 ± 0.18 | 22.3 ± 0.12 | 190 ± 16 | competitive inhibitor | 10.8 ± 1.03 | competitive inhibitor |  |  |  | 
 | CCOc1ccc(C2=NNC(c3ccc(F)cc3)C2)cc1 (stereo not shown) [EH7, 3-(4-ethoxyphenyl)-5-(4-fluorophenyl)-4,5-dihydro-1H-pyrazole] |  | 133.0 | 4.03 ± 0.53 | 0.063 ± 0.0042 | 74 ± 0.71 | 14.1 ± 0.71 | 46.9 ± 1.25 | 8.38 ± 0.88 | 34 ± 6.7 | competitive inhibitor | 3.64 ± 0.18 | competitive inhibitor | 12.5 | 89.5 | reversible inhibitor | 
 | CCOc1ccc(C2=NNC(c3ccc(Br)cc3)C2)cc1 (stereo not shown) [EH8, 5-(4-bromophenyl)-3-(4-ethoxyphenyl)-4,5-dihydro-1H-pyrazole] |  | 6.3 | 11.3 ± 0.13 | 0.69 ± 0.017 | 53.7 ± 2.15 | 14.6 ± 0.26 | 33.5 ± 0.65 | 4.31 ± 0.013 |  |  |  |  |  |  |  | 
CNS+/− | CN1C(C(=O)Nc2ccccn2)=C(O)c2ccccc2S1(=O)=O [Piroxicam, reference compound] | 2.5e-06 |  |  |  |  | 2.43 ± 0.3 |  |  |  |  |  |  |  |  |  | 
 | CC(=O)[C@H]1CC[C@H]2[C@@H]3CCC4=CC(=O)CC[C@]4(C)[C@H]3CC[C@]12C [Progesterone, reference compound] |  |  |  |  |  |  |  |  |  |  |  |  |  |  |  | 9.02 ± 0.11 ×10^−6 cm/s
